Test results from article PMC9399681, “Structural insight into ASH1L PHD finger recognizing methylated histone H3K4 and promoting cell growth in prostate cancer” (Frontiers in Oncology, 2022).
Positions count from the first letter of the chain named.

What was measured:
Type in all cases: binding, mASH1L
[1] = target: T1, ASH1L PHD M2588A (Mus musculus, UniProt Q99MY8, M2588A); experiment: ITC, ASH1L PHD mutant M2588A; conditions: 1.5 mM H3 (1–15) peptide, 25°C, pH 7.2, 1×PBS, 100-μM ZnCl2
T1 construct: The mASH1L PHD domain (residue 2573–2624); MBP (cleaved yes); made in house; host or cells: Escherichia coli BL21 (DE3)
T1 sequence (Q99MY8 2573-2624 M2588A): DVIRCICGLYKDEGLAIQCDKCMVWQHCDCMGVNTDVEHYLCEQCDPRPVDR
Source text: (§1) The mASH1L PHD domain (residue 2573–2624) was subcloned into a modified pMAL-c5X expression vector (New England Biolabs, Ipswich, MA, US), which contains an MBP tag and a TEV cleavage site. The site-directed mutagenesis of D2573A, I2575A, D2584E, E2585A, M2588A, Q2590E, and W2597A in the PHD domain was generated using the PfuTurbo DNA polymerase (Agilent Technologies) and Dpn I restriction enzyme (New England Biolabs). After the MBP tag was cut by TEV, these proteins were used in ITC and NMR experiments. The His-tagged PHD domain was subcloned into a pGEX-4T1 expression vector. The base vector has a GST tag and was engineered to include a TEV cleavage site before a 5′ 6×His sequence. After the GST tag was cut, this protein was used for the peptide array assay. The His-tagged Bromo-PHD tandem domain (residue 2425–2627) of mASH1L was subcloned into a pNIC-Bsa4 expression vector, which contains a His tag. […]
(§2) The bacteria were grown in Luria Broth (LB) media, supplemented with 100-μM ZnCl2 (all PHD constructs). […] The size and purity of the purified protein were monitored by SDS-PAGE. The PHD protein was concentrated with a filter tube (Millipore, Co. Cork, Ireland) and measured by UV absorbance at 280 nm. […]

[2] = target: T2, ASH1L PHD finger (Mus musculus, UniProt Q99MY8); experiment: ITC, ASH1L PHD finger with H3 peptides; conditions: MicroCal iTC200, 25°C, 1×PBS, 100-μM ZnCl2, pH 7.2; 100 µM protein titrated with 3 mM peptide; H3 (1–15) peptides, H3 (2–16) K9me2, H3 (29–43) K36me2
T2 construct: The mASH1L PHD domain (residue 2573–2624); MBP (cleaved yes); made in house; host or cells: Escherichia coli BL21 (DE3)
Protocol: The bacteria were grown in Luria Broth (LB) media, supplemented with 100-μM ZnCl2 (all PHD constructs). All PHD domains were expressed in Escherichia coli BL21 (DE3) cells and induced overnight with 0.5-mM isopropyl-β-D-1-thiogalactopyranoside (IPTG) at 22°C. In addition, the cells were harvested by centrifugation at 4,000 g. The harvested cells with MBP-tagged PHD were resuspended in buffer containing 25-mM Tris, pH 7.2, 1-M NaCl, 20-mM β-mercaptoethanol, 100-μM ZnCl2, and the Complete EDTA-free Protease Inhibitor (Roche, Mannheim, Germany). Following lysis in a microfluidizer (MFIC), cell debris was removed by centrifugation at 12,000 g for 1 h and the supernatant was loaded on a 5-ml MBPTrap HP column (GE Healthcare). The binding protein was eluted with buffer containing 25-mM Tris, pH 7.2, 500-mM NaCl, 20-mM β-mercaptoethanol, 20-mM maltose, and 100-μM ZnCl2. After TEV cleavage, the PHD domain was supplemented with 20-mM DTT and further purified using a Superdex 75 column (GE Healthcare, Uppsala, Sweden) in a final buffer containing 1×PBS, pH 7.2, 100- μM ZnCl2. […] The PHD protein was concentrated with a filter tube (Millipore, Co. Cork, Ireland) and measured by UV absorbance at 280 nm.
ITC assays were carried out on the MicroCal iTC200 System (Malvern) at 25°C while stirring at 750 rpm in the ITC buffer of pH 7.2, consisting of 1×PBS, 100-μM ZnCl2. […] The PHD or tandem Bromo-PHD protein sample of 100 µM was placed in the cell and titrated with 3 mM of a different peptide solution in the ITC buffer using a set of 31 injections of 1.2 μl, following a single initial injection of 0.2 μl. In the ITC measurements of PHD mutant samples, the H3 (1–15) peptides were diluted to the final concentrations of 1.5 mM, titrated with a single initial injection of 0.4 μl and followed with a set of 19 injections of 2 μl. Cumulative enthalpy exchange plots were derived from the raw thermal changes, using one set of a site-fitting model.

[3] = target: T3, ASH1L PHD W2597A (Mus musculus, UniProt Q99MY8, W2597A); experiment: ITC, ASH1L PHD mutant W2597A; conditions: 1.5 mM H3 (1–15) peptide, 25°C, pH 7.2, 1×PBS, 100-μM ZnCl2
T3 construct: The mASH1L PHD domain (residue 2573–2624); MBP (cleaved yes); made in house; host or cells: Escherichia coli BL21 (DE3)
T3 sequence (Q99MY8 2573-2624 W2597A): T1 sequence (Q99MY8 2573-2624 M2588A) with A16M, W25A
Source text: as §1, §2

[4] = target: T4, ASH1L PHD Q2590E (Mus musculus, UniProt Q99MY8, Q2590E); experiment: ITC, ASH1L PHD mutant Q2590E; conditions: 1.5 mM H3 (1–15) peptide, 25°C, pH 7.2, 1×PBS, 100-μM ZnCl2
T4 construct: The mASH1L PHD domain (residue 2573–2624); MBP (cleaved yes); made in house; host or cells: Escherichia coli BL21 (DE3)
T4 sequence (Q99MY8 2573-2624 Q2590E): T1 sequence (Q99MY8 2573-2624 M2588A) with A16M, Q18E
Source text: as §1, §2

[5] = target: T2, ASH1L PHD finger; experiment: NMR titration, KD estimation; conditions: 100 μM PHD, peptide 25-2,000 μM, 298 K, 1×PBS, pH 7.2, 100-μM ZnCl2; single-site model; mean ± SEM; H3 (1–15) peptides
Source text: as §1, with “sequence.” for “sequence. After the GST tag was cut, this protein was used for the peptide array assay. The His-tagged Bromo-PHD tandem domain (residue 2425–2627) of mASH1L was subcloned into a pNIC-Bsa4 expression vector, which contains a His tag.”
The bacteria were grown in Luria Broth (LB) media, supplemented with 100-μM ZnCl2 (all PHD constructs). […] The size and purity of the purified protein were monitored by SDS-PAGE. The PHD protein was concentrated with a filter tube (Millipore, Co. Cork, Ireland) and measured by UV absorbance at 280 nm.
The ^1H,^15N HSQC spectra of the ^15N-labeled PHD finger were collected at 298 K on a Bruker 800-MHz NMR spectrometer equipped with the z-gradient triple-resonance cryoprobe. The binding was analyzed through monitoring chemical shift perturbations observed in the two-dimensional ^1H,^15N HSQC spectra of PHD finger upon the addition of H3 (aa 1-15) peptides (H3K4me, H3K4me2, H3K4me3). […]

- Kd [1]: > 200 µM
- Kd [2]: 64 ± 4 µM
- Kd [3]: > 200 µM
- Kd [4]: 33 ± 8 µM
- Kd [5]: 106 ± 6 µM
Structure (SMILES): C[C@H](N)C(=O)N[C@@H](CCCNC(=N)N)C(=O)N[C@H](C(=O)N[C@@H](CCCC[N+](C)(C)C)C(=O)N[C@@H](CCC(N)=O)C(=O)N[C@H](C(=O)N[C@@H](C)C(=O)N[C@@H](CCCNC(=N)N)C(=O)N[C@@H](CCCCN)C(=O)N[C@@H](CO)C(=O)N[C@H](C(=O)NCC(=O)NCC(=O)N[C@@H](CCCCN)C(=O)N[C@@H](C)C(=O)O)[C@@H](C)O)[C@@H](C)O)[C@@H](C)O [H3K4me3]
